Source: US7709523B2, “Alpha-aminoamide derivatives useful as antimigraine agents” (Newron Pharmaceuticals SpA, priority 2003, dated 2010)

Test system: CBF response evoked by electrical stimulation of the left ophthalmic branch of the trigeminal ganglion
Assay: Inhibition of cerebral blood flow (CBF) increase evoked by electrical stimulation of the trigeminal ganglion in anesthetized rats
Format: in vivo, Male Wistar rats
Details: rat, i.v.; for % Inhibition of the CBF response: mean±S.E. of 4/6 rats, versus vehicle
Procedure: Male Wistar rats (250-350 g) were anesthetized with sodium pentobarbital (50 mg/kg i.p.) dissolved in saline. The trachea and left femoral artery were cannulated for artificial ventilation (55 strokes/min) and for measurement of mean blood pressure (MBP) respectively. The femoral vein was cannulated for the intravenous administration of test agents. Body temperature was maintained at 37-38° C. by automatic control of a heating pad. Animals were placed in a stereotaxic frame and a longitudinal incision was made in the scalp. A burr hole was drilled in the skull and a stainless steel bipolar electrode (Plastic One MS 306) was lowered into left ophthalmic branch of the trigeminal ganglion (3.8 mm […] to bregma, 2.5 mm lateral from the midline and 9.5 mm below the dural surface) and secured with dental cement. Correct placement of the electrode was confirmed by a brief electrical stimulation, which cause movement of the jaw due to activation of the trigeminal fiber. Following removal of the brain, the correct position of the electrode into the fiber, was visually checked at the end of each experiment. A second hole was drilled ipsilateral of the electrode (1.5 mm rostral to bregma, and 1.5 mm lateral from the sagittal suture) and a needle probe (tip diameter 0.8 mm) of a laser doppler flowmeter was fixed pointing with its tip onto a branch of the middle cerebral artery (MCA) and Cerebral Blood Flow (CBF) change recorded on-line by the PeriFlux 4001 Laser Doppler system. Artefacts of the laser Doppler reading during electrical stimulation of the trigeminal ganglion due to muscular movements were prevented by a bolus of i.v. injection of the neuromuscular blocker pancuronium bromide (0.6 mg/kg i.v.). Anesthesia and neuromuscular blockade were maintained all over the experiment with an infusion of sodium pentobarbital and pancuronium (12.5 mg/kg/h+2.4 mg/kg/h, respectively). At the end of the surgery, a pause of thirty minutes was taken in order to stabilize the measured parameters. Rest CBF was increased by electrical stimulation with rectangular pulse of 0.5 msec length, 1-10 Hz, 0.5-1 mA for periods of 30 seconds. After two averaged pre-drug stimulations, vehicle or drugs were administered. The α-aminoamide compounds NW-1015, NW-1029, NW-1039, representative of the invention, and the comparative 2-(4-(2-fluorobenzyloxy)benzylamino)-2-methyl-propanamide (internal code and hereinafter NW1050), 2-(4-(4-fluorobenzyloxy)benzylamino)-2-methyl-propanamide (internal code and hereinafter NW1055, also one of the compounds tested in WO99/26614), 4-(4′-fluorophenoxy)benzaldheyde semicarbazone (hereinafter Co102862, tested in WO00/61188) and vehicle, were administered intravenously after second basal stimulation registering the responses to evoked flow by electrical stimulation at 5, 15, 30 and 60 min after treatment. NW-1015, was administered at the doses of 1, 2 and 5 mg/kg; NW-1029 was administered at the doses of 5 and 10 mg/kg and NW-1039 at the doses of 2 and 5 mg/kg whereas NW-1050, NW-1055 and Co102862 were all administered at the dose of 20 mg/kg. The responses obtained after drug administration were compared to the vehicle group, and were reported as a percentage of the inhibition of the evoked CBF. Data were compared by analysis of covariance (ANCOVA) followed by Dunnet's test. The antimigraine effect of the tested compounds was observed and measured as the percentage of the inhibition after i.v. administration of the above mentioned representative compounds of the CBF evoked in control condition. The data reported in table 1 below show the inhibitory activity of the tested compounds on the CBF response evoked by electrical stimulation of the left ophthalmic branch of the trigeminal ganglion. Results (mean±S.E. of 4/6 rats per group) are expressed as percent of the inhibition on evoked CBF response versus the vehicle.

[1] = at the doses tested (1-10 mg/kg), up to 60 min
[2] = dose 2 mg/kg, 5 min after administration
[3] = dose 2 mg/kg, 15 min after administration
[4] = dose 2 mg/kg, 30 min after administration
[5] = dose 2 mg/kg, 60 min after administration
[6] = dose 5 mg/kg, 5 min after administration
[7] = dose 5 mg/kg, 15 min after administration
[8] = dose 5 mg/kg, 30 min after administration
[9] = dose 5 mg/kg, 60 min after administration
[10] = dose 20 mg/kg, 5 min after administration
[11] = dose 20 mg/kg, 15 min after administration
[12] = dose 20 mg/kg, 30 min after administration
[13] = dose 20 mg/kg, 60 min after administration

Row | Structure (SMILES) | Effect on the evoked CBF compared to the vehicle group (in words) [1] | % Inhibition of the CBF response [2] [%] | % Inhibition of the CBF response [3] [%] | % Inhibition of the CBF response [4] [%] | % Inhibition of the CBF response [5] [%] | % Inhibition of the CBF response [6] [%] | % Inhibition of the CBF response [7] [%] | % Inhibition of the CBF response [8] [%] | % Inhibition of the CBF response [9] [%] | Effect on the evoked CBF compared to the vehicle group (in words) (20 mg/kg) | % Inhibition of the CBF response [10] [%] | % Inhibition of the CBF response [11] [%] | % Inhibition of the CBF response [12] [%] | % Inhibition of the CBF response [13] [%] | also measured
1 | C[C@H](NCc1ccc(OCc2cccc(F)c2)cc1)C(N)=O [NW-1015, (S)-(+)-2-[4-(3-fluorobenzyloxy)benzylamino]-propanamide] | long lasting i.v. activity reducing the evoked CBF up to 60 min after administration | 15.0 ± 1.8 | 22.0 ± 3.8 | 20.6 ± 6.2 | 4.0 ± 6.3 | 25.2 ± 2.6 | 35.5 ± 6.5 | 34.7 ± 1.9 | 27.1 ± 3.6 |  |  |  |  |  | % Inhibition of the CBF response (dose 1 mg/kg, 5 min after administration): 25.6 ± 2.9%; % Inhibition of the CBF response (dose 1 mg/kg, 15 min after administration): 25.8 ± 2.7%; % Inhibition of the CBF response (dose 1 mg/kg, 30 min after administration): 36.6 ± 4.7 %; % Inhibition of the CBF response (dose 1 mg/kg, 60 min after administration): 15.7 ± 9.8%
2 | CC(C)(NCc1ccc(OCc2ccccc2F)cc1)C(N)=O [NW-1050, 2-(4-(2-fluorobenzyloxy)benzylamino)-2-methyl-propanamide, reference compound] |  |  |  |  |  |  |  |  |  | completely inactive | 1.2 ± 0.3 | 1.8 ± 0.6 | 1.7 ± 0.8 | 0.9 ± 0.1 | 
3 | CC(C)(NCc1ccc(OCc2ccc(F)cc2)cc1)C(N)=O [NW-1055, 2-(4-(4-fluorobenzyloxy)benzylamino)-2-methyl-propanamide, reference compound] |  |  |  |  |  |  |  |  |  | light inhibition of the evoked CBF, which however did not reach a statistically significant difference | 6.9 ± 4.2 | 3.4 ± 3.2 | 11.3 ± 2.0 | 14.0 ± 4.0 | 
4 | C[C@H](NCc1ccc(OCc2ccccc2F)cc1)C(N)=O [NW-1029, (S)-(+)-2-[4-(2-fluorobenzyloxy)benzylamino]-propanamide] | reduced the evoked CBF compared to the vehicle up to 60 min post administration |  |  |  |  | 15.5 ± 3.7 | 20.8 ± 3.5 | 27.8 ± 3.9 | 30.6 ± 2.8 |  |  |  |  |  | % Inhibition of the CBF response (dose 10 mg/kg, 5 min after administration): 23.9 ± 3.9%; % Inhibition of the CBF response (dose 10 mg/kg, 15 min after administration): 34.9 ± 8.2 %; % Inhibition of the CBF response (dose 10 mg/kg, 30 min after administration): 35.3 ± 2.6 %; % Inhibition of the CBF response (dose 10 mg/kg, 60 min after administration): 35.7 ± 3.9 %
5 | C[C@H](NCc1ccc(OCc2cccc(Cl)c2)cc1)C(N)=O [NW-1039, (S)-(+)-2-[4-(3-chlorobenzyloxy)benzylamino]-propanamide] | produced a decrease of the evoked CBF response compared to the vehicle group | 24.2 ± 6.2 | 31.3 ± 6.2 | 32.1 ± 8.1 | 36.2 ± 9.1 | 45.0 ± 6.3 | 41.7 ± 1.8 | 38.1 ± 2.6 | 20.9 ± 9.4 |  |  |  |  |  | 
6 | NC(=O)NN=Cc1ccc(Oc2ccc(F)cc2)cc1 [Co102862, 4-(4′-fluorophenoxy)benzaldheyde semicarbazone, reference compound] |  |  |  |  |  |  |  |  |  | completely inactive | 0.9 ± 0.1 | 1.1 ± 0.3 | 1.2 ± 0.2 | 0.7 ± 0.1 | 
